# Reference: patent US20200022964A1, “COMPOSITIONS AND METHODS FOR TREATMENT OF INFLAMMATORY AUTOIMMUNE DISEASES” (New York University, priority 2018, published 2020)
# How the values were obtained:
# M1 and M2 macrophages = assay: Macrophage polarization in vitro (BMDMs) and in vivo (spleen of TNF-α Tg mice); assay type: cell-based; conditions: in vitro BMDMs and spleen of treated TNF-α Tg mice
# Protocol: Macrophage polarization. […] INFγ (25 ng/mL) and LPS (250 ng/mL) were added to BMDMs to induce M1 polarization while IL-4(20 ng/mL) was used to induce M2 polarization, with or without adding FFD (1 or 10 μM) or TFD (0.1 or 1μM), and cells were cultured for 24 hours. mRNA were extracted by RNA Mini kit (74106, QIAGEN).
# Frozen splenic tissue specimens from TNFα Tg mice treated with or without TFD or FFD were stained and analyzed dual immunofluorescence. All sections were permeabilized with 0.1% NP40 in PBS, and then blocked in 5% donkey serum for 30 min at RT, followed by incubated with anti-IFNg (Th1), anti-IL-4 (Th2), anti-IL17 (Th17) and anti-foxp3 (Treg) diluted in 5% donkey serum at 4° C. overnight. On the second day, after washed 3 times in PBS, the sections were incubated with Cy2-conjugated donkey anti-rat IgG for 30 min at RT. After wash, the sections were furthered stained with FITC conjugated anti-CD4 for I hour at RT. To determine the macrophage polarization, sections were double stained with anti-CD68 and iNOS (M1) or CD206 (M2). DAPI were used to stain the nuclei. The fluorescence intensity of cells was quantified by Image J software.
# TNF-α and TNFR1 = TNF-α and TNFR1 (Homo sapiens, UniProt P19438); assay: Solid phase binding of TNF-α to TNFR1
# Chain of TNF-α and TNFR1 (P19438 30-211 limits assumed, species assumed): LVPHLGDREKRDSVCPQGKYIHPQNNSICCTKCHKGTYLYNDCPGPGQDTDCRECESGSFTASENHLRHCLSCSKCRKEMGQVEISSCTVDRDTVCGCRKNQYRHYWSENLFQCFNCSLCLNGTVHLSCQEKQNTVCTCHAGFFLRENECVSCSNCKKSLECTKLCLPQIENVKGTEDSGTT
# Protocol: Solid phase binding. […] Briefly, a 96-well ELISA plate was coated with 100 μL of 0.5 ng/μL TNFR1 at 4° C. overnight. The plate was washed with PBST 5 times, and 300 μL blocking buffer was added to each well followed by incubation at room temperature for 1 hour. After discarding the blocking buffer, 50 μL buffer containing drugs at concentrations ranging from 0.1 nM to 10^5 nM were added to the plate for 1 hour at room temperature. Three wells incubated with bovine serum albumin (BSA) served as negative controls and three wells containing TNF-α were set as positive controls. Without washing, 50 μL buffer containing 10 ng biotin-labeled TNF-α was added to each well and incubated at room temperature for 2 hours. The plate was washed and 100 μL buffer containing streptavidin-HPR was added and incubated at room temperature for 30 minutes. After a final wash, 100 μL TMB buffer was added to each well and the reaction was stopped when the positive control group turned blue. The plate was read by automatic plate reader at 450 nm.
# cPLA2 = target: T1, cPLA2 (Homo sapiens, UniProt P47712); assay: cPLA2 activity assay in cPLA2-transfected RAW264.7 cells; assay type: cell-based; conditions: TNF-α 10 ng/ml; TFD 0.1 or 1 μM, FFD 1 or 10 μM overnight
# T1 construct: expressed in transfected cells; host or cells: RAW264.7
# T1 sequence (P47712 whole entry): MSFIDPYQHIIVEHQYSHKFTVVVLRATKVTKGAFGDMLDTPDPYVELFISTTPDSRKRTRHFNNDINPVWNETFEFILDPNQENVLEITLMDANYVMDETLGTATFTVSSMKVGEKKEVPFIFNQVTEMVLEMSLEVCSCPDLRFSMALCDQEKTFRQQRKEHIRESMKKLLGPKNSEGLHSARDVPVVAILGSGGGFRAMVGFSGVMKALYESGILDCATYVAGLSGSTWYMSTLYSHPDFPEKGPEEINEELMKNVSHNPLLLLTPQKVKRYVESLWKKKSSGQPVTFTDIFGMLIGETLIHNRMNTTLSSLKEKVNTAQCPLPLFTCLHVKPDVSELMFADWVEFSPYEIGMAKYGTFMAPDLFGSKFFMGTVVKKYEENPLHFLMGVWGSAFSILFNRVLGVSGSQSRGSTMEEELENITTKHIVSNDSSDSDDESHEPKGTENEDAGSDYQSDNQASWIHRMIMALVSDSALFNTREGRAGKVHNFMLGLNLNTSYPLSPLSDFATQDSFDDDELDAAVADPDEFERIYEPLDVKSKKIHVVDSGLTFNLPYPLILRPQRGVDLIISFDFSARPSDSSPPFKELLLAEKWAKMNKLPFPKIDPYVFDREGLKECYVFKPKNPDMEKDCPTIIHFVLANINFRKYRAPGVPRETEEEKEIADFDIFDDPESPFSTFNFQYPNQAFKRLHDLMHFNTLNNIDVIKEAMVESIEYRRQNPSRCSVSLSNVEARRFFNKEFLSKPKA
# Protocol: cPLA2 activity assay. RAW264.7 cells were transfected with an expression plasmid encoding cPLA2. 24 hours later, the transfected cells were treated with TNF-α (10 ng/ml) and ATK (1 μM), or TFD (0.1 μM or 1 μM), or FFD (1 μM or 10 μM) overnight. Then the cells were collected and lysed. Cell lysate was used for measurement of cPLA2 activity using a commercial ELISA kit (765021, Cayman Chemical). Briefly, protein concentration of the cell lysate was measured by bicinchoninic acid assay and equal amounts of protein from each lysate sample were incubated with cPLA2 substrate (Arachidonoyl Thio-PC) at room temperature. One hour later, DTNB/EGTA was added to stop the enzyme catalysis, and then the absorbance was read at 414 nm using a plate reader (SpectraMax i3x, 5025027A, Molecular Devices).
# [1] = test system: TNF-α/NF-κB signaling pathway; assay: NF-κB beta-lactamase reporter gene assay in NF-κB-bla THP-1 cell line; assay type: cell-based; conditions: THP-1 cells, drug overnight; for TNF-α-activated NF-κB reporter gene: then TNF-α 6 hours
# Protocol: In vitro and in vivo screen of FDA-approved drug library. NF-κB-bla THP-1 cell line in which NF-κB beta-lactamase reporter gene was stably integrated, RAW 264.7 macrophages in which NF-κB luciferase reporter gene was transiently transfected, and TNF-tg:NF-κB-Luc double mutant reporter mice were employed to screen the drug library. Screening FDA approved drugs in vitro. NF-κB-bla THP-1 cell line ([…], Invitrogen) was cultured in 96-well plates and FDA approved drugs (10 μM, L1300, Selleckchem) were added and cultured overnight. Next day, […] Loading Kit with CCF2-AM ([…], Invitrogen) was used to detect the β-lactamase activity via SpectraMax i3x system (5025027A Molecular Devices) with excitation wavelength at 409 nm and emission wavelengths at 520 nm or 470 nm. This process was performed in triplicate. Subsequently, the drugs from first screening that could inhibit TNF-α induced NF-κB activity underwent further screening by NF-κB luciferase assay. After transfection with NF-κB luciferase reporter gene and Renilla plasmids for 8 hours, cells were treated with drugs (10 μM) overnight, followed by TNF-α (10 ng/ml) stimulation for 6 hours, then bioluminescence was measured by Dual-Luciferase® Reporter Assay kit (E1910, Promega). The data were analyzed by Graphpad Prism software (GraphPad Software, San Diego, Calif.).
# DBA/1J mice = assay: Collagen induced arthritis model in DBA/1J mice; conditions: for loss of cartilage (Safranin O staining of ankle) / serum levels of IL-1β and IL-6 / arthritis clinical scores and incidence / onset of disease: prevention; for arthritis clinical scores and incidence / onset of disease: oral daily from 18 days after immunization, FFD 10 mg/kg, TFD 50 mg/kg; for disease scores: therapeutic, treatment initiated at clinical score of ˜5 points, FFD 0.4, 2, 10 mg/kg, TFD 2, 10, 50 mg/kg oral, 24 days
# TNF-α = assay: qRT-PCR of TNF-α-induced IL-1β, IL-6 and Nos-2 mRNA in BMDMs; assay type: cell-based, mice; conditions: TNF-α 10 ng/mL; FFD 1, 10 μM; TFD 0.1, 1 μM; 24 hours
# Protocol: Primary bone marrow derived macrophages (BMDMs) extraction. BMDMs were isolated from C57BL/6 and TNF-tg mice. After mice were sacrificed by cervical dislocation, the tibia and femur were isolated and both ends of the bones were cut to open the medullary cavity. Bone marrow cells were collected by centrifuge at 13000 g for 90 seconds and seeded in 6-well plates. Prior to their use in experiments, M-CSF (10 ng/ml, 576406, Biolegend) was added for 6 days to the BMDM culture medium.
# qRT-PCR. Total RNA was extracted by RNeasy plus mini kit (74106, QIAGEN) and cDNA was synthesized using SuperScript® Reverse Transcriptase (M314C, promega Corporation). SYBR® Green PCR Master Mix (4309155, Applied Biosystems) was used to perform quantitative real-time PCR (qRT-PCR) and the reaction was performed on a StepOnePlus™ real-time PCR Systems (Applied Biosystems). The mRNA expression level of target genes was calculated by ΔΔCT and fold changes of mRNA levels were normalized to GAPDH.
# [2] = test system: TNF-α induced AA production; assay: Arachidonic acid detection in BMDMs; assay type: cell-based, mice; conditions: TNF-α 10 ng/mL, 48 hours
# From the text: Arachidonic acid detection. […] The result was detected at 450nm by automatic plate reader (SpectraMax i3x system, 5025027A, Molecular Devices). ATK was implemented as a positive control.
SMILES,anti-inflammatory M2 macrophages (M1 and M2 macrophages),inflammatory M1 macrophages (M1 and M2 macrophages),binding of TNF-α to TNFR1 in vitro (TNF-α and TNFR1),TNF-α induced cPLA2 activity (cPLA2),AA activation of the NF-κB reporter gene ([1]; then AA 6 hours),TNF-α-activated NF-κB reporter gene [1],TNF-α-activated NF-κB reporter gene ([1]; listed as FFD),loss of cartilage (Safranin O staining of ankle) (DBA/1J mice),serum levels of IL-1β and IL-6 (DBA/1J mice),arthritis clinical scores and incidence (DBA/1J mice),onset of disease (DBA/1J mice),disease scores (DBA/1J mice),"TNF-α-induced mRNA expressions of IL-1β, IL-6 and Nos-2 (TNF-α)",TNF-α induced AA production [2]
CC(C)(C(=O)O)c1ccc(C(O)CCCN2CCC(C(O)(c3ccccc3)c3ccccc3)CC2)cc1 (centres unmarked) [fexofenadine],markedly increased,significantly inhibited,did not affect,completely abolished,did not constrain,inhibited,inhibit,prevented the loss of cartilage,significantly reduced,significantly decrease,delay the onset,dose-dependently ameliorated,dose-dependently inhibited,inhibited
CC(C)(C)c1ccc(C(O)CCCN2CCC(C(O)(c3ccccc3)c3ccccc3)CC2)cc1 (centres unmarked) [terfenadine],markedly increased,significantly inhibited,did not affect,completely abolished,–,inhibit,–,prevented the loss of cartilage,significantly reduced,significantly decrease,delay the onset,dose-dependently ameliorated,dose-dependently inhibited,inhibited
